# Measurements as given in US12702715B2, “Targeted RNA degradation allows precision repurposing of protein-targeted small molecule medicines to RNA” (University of Florida Research Foundation, Incorporated, priority 2020, dated 2026).
# Entries after “also recorded” stand apart in the source; their conditions may differ.
# Key:
# pre-miR-21 mutant = test: In vitro Dicer processing of pre-miR-21 mutant; type: biochemical
# Description: In vitro Dicer Processing. The pre-miR-21 WT RNA or pre-miR-21 base pair mutant were 5′-end labeled with T4 polynucleotide kinase and [γ-^32P] ATP as described previously^7. The RNA was folded in 1× Reaction Buffer (Genlantis) by heating at 55° C. for 5 min and cooling slowly to room temperature on the benchtop. The mixture was then supplemented with 2.5 mM MgCl2 and 1 mM ATP. The Dicer processing reaction was performed as described previously^6. The cleavage products were resolved on a 15% polyacrylamide denaturing gel and imaged using a Molecular Dynamics Typhoon phosphorimager and quantified with QuantityOne software from Bio-Rad.
# MDA-MB-231-Luc cells = type: in vivo, mouse; settings: for pre-miR-21 levels in lung tissue: FISH; for pre-miR-21 levels in lung tissue / ERK levels in lung tissue / PDCD4 expression in lung tissue: 1 assessed after 12 days of dosing; for ERK levels in lung tissue / PDCD4 expression in lung tissue: IHC
# Text: In Vivo Studies to Assess Metastasis of Breast Cancer to the Lung. Female NOD/SCID mice (n=10; 5-7 weeks) were used for in vivo breast cancer metastasis studies as previously reported^6. Briefly, mice purchased from Jackson Laboratory were intravenously injected (tail vein) with MDA-MB-231-Luc cells (0.8×10^6 cells/mice). Luciferase activity was monitored every other day to determine when to initiate treatment [averaged luciferase signal from mice is ten times higher than the background as measured by LagoX (Spectral Instruments)]. After 5 days, the mice were split into three groups, with each group having the same luciferase signal. […]. After 30 days, lungs were harvested and immediately fixed in Bouin's solution (Sigma, HT10132-1L) for 24 h to image nodules. After counting the nodules, the fixed lungs were washed in 60 mL of 10% formalin solution four times over 48 h to remove Bouin's solution. Paraffin-embedded sections of the lungs were then generated by the Histology Core at Scripps Research Florida for further staining.
# Lung Tissue Histology. All histological analyses were performed as previously reported^6. The slides were stained on a Leica BondMax Immunostaining platform by using a DAB refine kit. H&E staining and PDCD4, pERK and ERK IHC were performed by the Histology Core at Scripps Research Florida. All antibodies were used at a 1:100 dilution: anti-PDCD4 (Abcam, ab51495); anti-pERK (Cell Signaling Technology, 4370S); and ERK (Cell Signaling Technology, 9102S). The primary antibodies were detected using a DAB Substrate Kit (Vector Laboratories, Inc.) per the manufacturer's protocol.
# To visualize miR-21 and pre-miR-21 by fluorescence in situ hybridization (FISH), the paraffin-embedded sections were incubated at 56° C. overnight and cleaned with xylene three times, followed by washing with serially diluted concentrations of ethanol (100%, 95%, 90%, and 85%). The slides were then washed with MilliQ water three times and immersed in 0.3% (v/v) H2O2 for 30 min at room temperature. The slides were then washed with MilliQ water three times and digested with proteinase K (QIAGEN) at 37° C. for 15 min. After washing three times with MilliQ water, the slides were dehydrated with 95% ethanol and air-dried completely at room temperature. The slides were then hybridized with FITC-labeled LNA probes^6 complementary to mature ([…]*/36-FAM SEQ ID NO: 16) or pre-miR-21 ([…]/36-FAM SEQ ID NO: 17) at […] overnight. After hybridization, the slides were washed with 2×SSC (saline sodium citrate buffer) three times and then 1×DPBS three times, all at room temperature. The slides were then incubated with an anti-FITC horseradish peroxidase-conjugated antibody (Abcam) for 2 h at room temperature. The slides were washed with 1×TBST three times.
# After staining of interest was completed, the slides were dehydrated, cover-slipped with Cytoseal 60, and imaged with a Leica DM13000 B upright fluorescent microscope.
# [1] = test system: all miRNAs expressed in MDA-MB-231 cells; test: Global miRNA profiling in MDA-MB-231 cells; type: cell-based, human
# Description: RNA Isolation and Quantitative Real-Time PCR (RT-qPCR). After treatment, total RNA was extracted and purified by using the Zymo Quick-RNA mini prep kit per the manufacturer's protocol. Reverse Transcription (RT) for mature miRNAs as well as pri- and pre-miR-21 was completed on 200 ng of RNA by using a miScript 11 RT kit (QIAGEN) according to manufacturer's protocol. RT of mRNAs was performed by using QScript kit (Quanta Bio). An Applied Biosystems QS5 384-well PCR system was used to complete qPCR experiments using Power Sybr Green Mater Mix (Life Technologies) as described previously^6.
# Alport mice (Col4a3−/−) = test: Alport mice studies; type: in vivo, mouse
# Description: Alport Mice Studies. Alport mice (Col4a3^−/−) and wild type (WT) mice (Col4a3^+/+) were obtained from the breeding of heterozygous […]. Urine was collected 1 day before the treatment, considered as Day 1. The treatment started at Day 2, at around 4 weeks of age. Alport mice were treated with vehicle or 2 as described for NOD/SCID mice in the “In Vivo Studies to Assess Metastasis of Breast Cancer to the Lung” section. Urine was collected every other day for analysis of albumin or creatine levels. After 6 weeks of treatment, the mice were euthanized on Day 43. One kidney was frozen in −80° C. for Western blot and RT-qPCR analyses. The other kidney was fixed in formalin for paraffin-embedding sectioning and further staining.
# Evaluation of Kidney Function. The concentration of urine albumin was determined by using a Mouse Albumin ELISA Kit (Bethyl Laboratories Inc, E99-134) per the manufacturer's protocol. Urine creatinine level was measured by using a Urinary Creatinine Assay Kit (Fisher Scientific, 50-673-569) per the manufacturer's protocol.
# Kidney Tissue Histology. Silver staining, PAS staining, and PPARα staining were performed by Histology Core at Scripps Research Florida. The anti-PPARα (Abcam, ab215270) was used at 1:1000 dilution. FISH imaging of miR-21 and pre-miR-21 were completed as described in “Lung Tissue Histology”.
SMILES,inhibition of Dicer processing of mutant pre-miR-21 lacking the 1 binding site (pre-miR-21 mutant),pre-miR-21 levels in lung tissue (MDA-MB-231-Luc cells),ERK levels in lung tissue (MDA-MB-231-Luc cells),PDCD4 expression in lung tissue (MDA-MB-231-Luc cells),selectivity among all miRNAs [1],"weight change of NOD/Scid mice (MDA-MB-231-Luc cells; 56 mg/kg q.o.d., over 38 days)","hematoxylin and eosin (HE) staining of lung (MDA-MB-231-Luc cells; mouse, in vivo)",body weight of Alport mice (Alport mice (Col4a3−/−); 56 mg/kg q.o.d.),"urine albumin normalized to urine creatinine (Alport mice (Col4a3−/−); 56 mg/kg, q.o.d., 42 days)",PPARα expression in kidneys (Alport mice (Col4a3−/−); Alport mice),tubule injury / tubulointerstitial pathology (Alport mice (Col4a3−/−); PAS staining),pre-miR-21 levels in kidneys (Alport mice (Col4a3−/−); both Alport and WT mice),"mature miR-21 levels in kidneys (Alport mice (Col4a3−/−); both WT and Alport mice, RT-qPCR)",glomerulosclerosis (Alport mice (Col4a3−/−); silver methenamine staining)
"CN1CCN(c2ccc3nc(-c4c(N)c5c(F)cccc5[nH]c4=O)[nH]c3c2)CC1 [Compound 1, Dovitinib, reference compound]",had no effect; also recorded: unable to inhibit,did not affect,did not affect,did not affect,,,,,,,,,,
"CCOC(=O)C1=C(Nc2ccccc2)S/C(=C\c2ccc(OCCOCCOCCOCCNC(=O)NCCN3CCN(c4ccc5[nH]c(-c6c(N)c7c(F)cccc7[nH]c6=O)nc5c4)CC3)c(O)c2)C1=O [Compound 2, Ribotac-Dovitinib]",,significantly diminished,had no effect,derepressed,more selective than 1; also recorded: greater selectivity,did not cause significant changes in weight,decrease,gained more weight than vehicle-treated mice,stabilized; also recorded: decreased urine albumin concentration,enhanced; also recorded: derepressed,significantly reduced; also recorded: prevented tubule injury,reduced; also recorded: decreased,decreased miR-21 levels; also recorded: reduced,prevents glomerulosclerosis and tubular atrophy; also recorded: significantly reduced
